Source: publication PMC8401933 (Molecules, 2021)

What was measured:
Assay in all cases: KINOMEscan binding
Conditions in all cases: read-out: Percent Control
ACVR1 = target: T1, ACVR1 (Homo sapiens, UniProt Q04771)
T1 construct: purchased Eurofins DiscoverX KINOMEscan

NEK7 = target: T2, NEK7 (Homo sapiens, UniProt Q8TDX7)
T2 construct: purchased Eurofins DiscoverX KINOMEscan

NEK9 = target: T3, NEK9 (Homo sapiens, UniProt Q8TD19)
T3 construct: purchased Eurofins DiscoverX KINOMEscan

NEK1 = target: T4, NEK1 (Homo sapiens, UniProt Q96PY6)
T4 construct: purchased Eurofins DiscoverX KINOMEscan

LOK = target: T5, LOK (Homo sapiens, UniProt O94804)
T5 construct: purchased Eurofins DiscoverX KINOMEscan

GRK1 = target: T6, GRK1 (Homo sapiens, UniProt Q15835)
T6 construct: purchased Eurofins DiscoverX KINOMEscan

TIE1 = target: T7, TIE1 (Homo sapiens, UniProt P35590)
T7 construct: purchased Eurofins DiscoverX KINOMEscan

TAOK1 = target: T8, TAOK1 (Homo sapiens, UniProt Q7L7X3)
T8 construct: purchased Eurofins DiscoverX KINOMEscan

SLK = target: T9, SLK (Homo sapiens, UniProt Q9H2G2)
T9 construct: purchased Eurofins DiscoverX KINOMEscan

PAK4 = target: T10, PAK4 (Homo sapiens, UniProt O96013)
T10 construct: purchased Eurofins DiscoverX KINOMEscan

MAPKAPK2 = target: T11, MAPKAPK2 (Homo sapiens, UniProt P49137)
T11 construct: purchased Eurofins DiscoverX KINOMEscan

NEK5 = target: T12, NEK5 (Homo sapiens, UniProt Q6P3R8)
T12 construct: purchased Eurofins DiscoverX KINOMEscan

PRKCI = target: T13, PRKCI (Homo sapiens, UniProt P41743)
T13 construct: purchased Eurofins DiscoverX KINOMEscan

BMPR1A = target: T14, BMPR1A (Homo sapiens, UniProt P36894)
T14 construct: purchased Eurofins DiscoverX KINOMEscan

CSNK1G3 = target: T15, CSNK1G3 (Homo sapiens, UniProt Q9Y6M4)
T15 construct: purchased Eurofins DiscoverX KINOMEscan

IRAK4 = target: T16, IRAK4 (Homo sapiens, UniProt Q9NWZ3)
T16 construct: purchased Eurofins DiscoverX KINOMEscan

PRKG1 = target: T17, PRKG1 (Homo sapiens, UniProt Q13976)
T17 construct: purchased Eurofins DiscoverX KINOMEscan

PRP4 = target: T18, PRP4 (Homo sapiens, UniProt Q13523)
T18 construct: purchased Eurofins DiscoverX KINOMEscan
Protocol: (§1) This platform contains 468 recombinant human kinases (more than 80% coverage) in which 56 disease-relevant mutants are included. The recombinant DNA-tagged kinases were incubated with the probe ligands immobilized to a solid support, and then the level of the captured kinases on the solid support was measured using quantitative PCR.

CDC2L5 = target: T19, CDC2L5 (Homo sapiens, UniProt Q14004)
T19 construct: purchased Eurofins DiscoverX KINOMEscan
Protocol: as §1

[1] = target: T20, RSK1(Kin.Dom.2-C-terminal) (Homo sapiens, UniProt Q15418)
T20 construct: RSK1(Kin.Dom.2-C-terminal); purchased Eurofins DiscoverX KINOMEscan

CIT = target: T21, CIT (Homo sapiens, UniProt O14578)
T21 construct: purchased Eurofins DiscoverX KINOMEscan

PAK6 = target: T22, PAK6 (Homo sapiens, UniProt Q9NQU5)
T22 construct: purchased Eurofins DiscoverX KINOMEscan

PFTK1 = target: T23, PFTK1 (Homo sapiens, UniProt O94921)
T23 construct: purchased Eurofins DiscoverX KINOMEscan

PAK1 = target: T24, PAK1 (Homo sapiens, UniProt Q13153)
T24 construct: purchased Eurofins DiscoverX KINOMEscan

p38-alpha = target: T25, p38-alpha (Homo sapiens, UniProt Q16539)
T25 construct: purchased Eurofins DiscoverX KINOMEscan

FGR = target: T26, FGR (Homo sapiens, UniProt P09769)
T26 construct: purchased Eurofins DiscoverX KINOMEscan

DCAMKL3 = target: T27, DCAMKL3 (Homo sapiens, UniProt Q9C098)
T27 construct: purchased Eurofins DiscoverX KINOMEscan

TRKC = target: T28, TRKC (Homo sapiens, UniProt Q16288)
T28 construct: purchased Eurofins DiscoverX KINOMEscan

HIPK1 = target: T29, HIPK1 (Homo sapiens, UniProt Q86Z02)
T29 construct: purchased Eurofins DiscoverX KINOMEscan

ROS1 = target: T30, ROS1 (Homo sapiens, UniProt P08922)
T30 construct: purchased Eurofins DiscoverX KINOMEscan

MYLK2 = target: T31, MYLK2 (Homo sapiens, UniProt Q9H1R3)
T31 construct: purchased Eurofins DiscoverX KINOMEscan

YANK2 = target: T32, YANK2 (Homo sapiens, UniProt Q9NY57)
T32 construct: purchased Eurofins DiscoverX KINOMEscan

PRKD3 = target: T33, PRKD3 (Homo sapiens, UniProt O94806)
T33 construct: purchased Eurofins DiscoverX KINOMEscan

SYK = target: T34, SYK (Homo sapiens, UniProt P43405)
T34 construct: purchased Eurofins DiscoverX KINOMEscan

FYN = target: T35, FYN (Homo sapiens, UniProt P06241)
T35 construct: purchased Eurofins DiscoverX KINOMEscan

p38-beta = target: T36, p38-beta (Homo sapiens, UniProt Q15759)
T36 construct: purchased Eurofins DiscoverX KINOMEscan

MARK2 = target: T37, MARK2 (Homo sapiens, UniProt Q7KZI7)
T37 construct: purchased Eurofins DiscoverX KINOMEscan

CHEK2 = target: T38, CHEK2 (Homo sapiens, UniProt O96017)
T38 construct: purchased Eurofins DiscoverX KINOMEscan

FGFR3(G697C) = target: T39, FGFR3(G697C) (Homo sapiens, UniProt P22607, G697C)
T39 construct: purchased Eurofins DiscoverX KINOMEscan

MEK1 = target: T40, MEK1 (Homo sapiens, UniProt Q02750)
T40 construct: purchased Eurofins DiscoverX KINOMEscan

RIPK2 = target: T41, RIPK2 (Homo sapiens, UniProt O43353)
T41 construct: purchased Eurofins DiscoverX KINOMEscan

CDK8 = target: T42, CDK8 (Homo sapiens, UniProt P49336)
T42 construct: purchased Eurofins DiscoverX KINOMEscan

GSK3A = target: T43, GSK3A (Homo sapiens, UniProt P49840)
T43 construct: purchased Eurofins DiscoverX KINOMEscan

T42 sequence (P49336 whole entry): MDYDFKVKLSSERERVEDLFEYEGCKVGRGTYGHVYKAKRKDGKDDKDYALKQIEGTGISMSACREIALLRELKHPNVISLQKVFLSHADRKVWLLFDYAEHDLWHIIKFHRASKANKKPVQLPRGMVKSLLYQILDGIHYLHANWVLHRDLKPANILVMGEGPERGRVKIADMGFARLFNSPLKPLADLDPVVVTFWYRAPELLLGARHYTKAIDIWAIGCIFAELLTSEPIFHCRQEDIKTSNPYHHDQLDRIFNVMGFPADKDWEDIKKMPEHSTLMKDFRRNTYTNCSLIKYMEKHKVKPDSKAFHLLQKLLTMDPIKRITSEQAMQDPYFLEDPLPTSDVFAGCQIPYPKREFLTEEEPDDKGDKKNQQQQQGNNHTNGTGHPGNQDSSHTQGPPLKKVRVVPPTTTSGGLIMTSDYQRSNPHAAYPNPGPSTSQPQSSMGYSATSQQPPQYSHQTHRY
T14 sequence (P36894 24-532): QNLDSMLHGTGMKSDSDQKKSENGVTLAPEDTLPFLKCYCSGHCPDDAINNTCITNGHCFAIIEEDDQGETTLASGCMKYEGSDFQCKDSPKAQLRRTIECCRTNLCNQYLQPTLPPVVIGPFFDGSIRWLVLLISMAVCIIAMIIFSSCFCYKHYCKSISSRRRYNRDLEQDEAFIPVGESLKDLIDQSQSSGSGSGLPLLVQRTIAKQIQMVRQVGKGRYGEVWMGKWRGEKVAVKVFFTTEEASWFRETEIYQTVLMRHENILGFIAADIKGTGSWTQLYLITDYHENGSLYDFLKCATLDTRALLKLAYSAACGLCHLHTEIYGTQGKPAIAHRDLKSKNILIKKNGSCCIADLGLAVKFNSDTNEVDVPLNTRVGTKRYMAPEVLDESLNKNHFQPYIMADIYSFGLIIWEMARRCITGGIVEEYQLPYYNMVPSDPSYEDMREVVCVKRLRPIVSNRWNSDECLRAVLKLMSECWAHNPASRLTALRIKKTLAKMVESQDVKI
T37 sequence (Q7KZI7 whole entry): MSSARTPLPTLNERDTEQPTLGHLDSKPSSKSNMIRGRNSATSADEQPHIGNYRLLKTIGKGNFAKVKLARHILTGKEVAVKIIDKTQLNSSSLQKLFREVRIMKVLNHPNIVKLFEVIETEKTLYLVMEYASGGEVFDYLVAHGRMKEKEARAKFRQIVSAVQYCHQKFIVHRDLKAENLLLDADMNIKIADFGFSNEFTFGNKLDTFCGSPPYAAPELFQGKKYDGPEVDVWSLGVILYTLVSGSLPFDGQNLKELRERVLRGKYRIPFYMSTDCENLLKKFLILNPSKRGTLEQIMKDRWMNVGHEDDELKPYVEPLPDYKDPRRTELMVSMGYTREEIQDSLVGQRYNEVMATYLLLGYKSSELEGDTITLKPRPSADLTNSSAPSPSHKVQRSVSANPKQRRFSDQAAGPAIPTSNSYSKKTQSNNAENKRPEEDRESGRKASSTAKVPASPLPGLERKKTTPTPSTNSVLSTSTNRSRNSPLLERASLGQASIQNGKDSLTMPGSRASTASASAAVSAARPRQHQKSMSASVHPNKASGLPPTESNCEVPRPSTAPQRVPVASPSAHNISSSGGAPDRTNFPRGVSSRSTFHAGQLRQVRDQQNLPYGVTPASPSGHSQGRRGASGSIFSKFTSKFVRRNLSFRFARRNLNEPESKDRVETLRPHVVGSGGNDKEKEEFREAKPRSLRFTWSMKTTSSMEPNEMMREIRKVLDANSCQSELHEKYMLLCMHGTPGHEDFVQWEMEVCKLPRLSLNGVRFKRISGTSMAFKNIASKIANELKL
T28 sequence (Q16288 32-839): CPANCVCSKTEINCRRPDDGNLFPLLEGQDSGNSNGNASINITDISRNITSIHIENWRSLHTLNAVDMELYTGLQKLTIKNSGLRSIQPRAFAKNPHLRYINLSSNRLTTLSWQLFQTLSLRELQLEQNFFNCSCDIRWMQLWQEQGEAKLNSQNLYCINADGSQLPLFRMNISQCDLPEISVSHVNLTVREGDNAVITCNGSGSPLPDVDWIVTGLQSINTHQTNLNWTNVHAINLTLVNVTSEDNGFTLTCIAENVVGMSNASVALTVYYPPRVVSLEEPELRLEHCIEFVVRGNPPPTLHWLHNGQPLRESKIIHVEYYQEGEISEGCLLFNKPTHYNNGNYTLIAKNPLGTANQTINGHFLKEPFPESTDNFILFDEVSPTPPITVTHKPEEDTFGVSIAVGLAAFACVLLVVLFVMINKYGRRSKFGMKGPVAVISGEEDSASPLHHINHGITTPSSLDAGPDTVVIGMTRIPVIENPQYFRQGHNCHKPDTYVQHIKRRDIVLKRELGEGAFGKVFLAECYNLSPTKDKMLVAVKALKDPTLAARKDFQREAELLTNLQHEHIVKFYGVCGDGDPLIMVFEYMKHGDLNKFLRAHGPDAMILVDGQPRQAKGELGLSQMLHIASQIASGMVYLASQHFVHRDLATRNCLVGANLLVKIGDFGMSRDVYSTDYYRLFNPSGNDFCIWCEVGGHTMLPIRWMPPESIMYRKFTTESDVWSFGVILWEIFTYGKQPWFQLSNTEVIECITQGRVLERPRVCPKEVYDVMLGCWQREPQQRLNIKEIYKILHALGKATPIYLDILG
T31 sequence (Q9H1R3 whole entry): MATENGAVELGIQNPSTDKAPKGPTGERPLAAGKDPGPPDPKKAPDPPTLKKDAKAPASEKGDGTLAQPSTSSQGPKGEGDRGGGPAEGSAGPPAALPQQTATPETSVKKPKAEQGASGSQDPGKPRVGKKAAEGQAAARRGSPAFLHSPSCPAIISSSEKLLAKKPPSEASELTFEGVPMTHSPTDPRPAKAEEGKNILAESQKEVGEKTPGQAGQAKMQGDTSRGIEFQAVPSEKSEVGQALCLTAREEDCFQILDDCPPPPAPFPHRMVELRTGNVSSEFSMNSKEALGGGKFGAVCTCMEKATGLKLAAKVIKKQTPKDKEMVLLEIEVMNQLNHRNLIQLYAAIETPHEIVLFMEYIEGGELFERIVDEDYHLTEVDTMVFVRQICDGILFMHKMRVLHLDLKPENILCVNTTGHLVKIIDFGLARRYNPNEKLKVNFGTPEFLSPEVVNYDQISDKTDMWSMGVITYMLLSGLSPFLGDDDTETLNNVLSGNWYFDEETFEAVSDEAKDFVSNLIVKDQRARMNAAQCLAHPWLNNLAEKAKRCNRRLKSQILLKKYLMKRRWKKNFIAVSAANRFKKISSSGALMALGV
T41 sequence (O43353 whole entry): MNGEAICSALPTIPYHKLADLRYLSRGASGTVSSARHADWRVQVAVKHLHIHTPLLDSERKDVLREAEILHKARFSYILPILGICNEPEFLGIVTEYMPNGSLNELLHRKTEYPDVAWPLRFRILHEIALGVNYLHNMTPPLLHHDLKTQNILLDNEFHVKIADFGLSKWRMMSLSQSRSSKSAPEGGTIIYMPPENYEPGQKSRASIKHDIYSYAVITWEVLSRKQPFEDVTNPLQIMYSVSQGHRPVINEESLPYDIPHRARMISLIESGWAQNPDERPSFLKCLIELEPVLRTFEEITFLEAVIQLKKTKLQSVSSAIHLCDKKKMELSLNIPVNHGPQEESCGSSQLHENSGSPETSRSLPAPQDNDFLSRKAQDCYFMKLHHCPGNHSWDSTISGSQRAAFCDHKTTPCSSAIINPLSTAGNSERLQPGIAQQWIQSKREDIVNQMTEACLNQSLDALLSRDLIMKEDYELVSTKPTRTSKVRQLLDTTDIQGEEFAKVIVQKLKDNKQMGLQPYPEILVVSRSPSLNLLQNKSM
T7 sequence (P35590 22-1138): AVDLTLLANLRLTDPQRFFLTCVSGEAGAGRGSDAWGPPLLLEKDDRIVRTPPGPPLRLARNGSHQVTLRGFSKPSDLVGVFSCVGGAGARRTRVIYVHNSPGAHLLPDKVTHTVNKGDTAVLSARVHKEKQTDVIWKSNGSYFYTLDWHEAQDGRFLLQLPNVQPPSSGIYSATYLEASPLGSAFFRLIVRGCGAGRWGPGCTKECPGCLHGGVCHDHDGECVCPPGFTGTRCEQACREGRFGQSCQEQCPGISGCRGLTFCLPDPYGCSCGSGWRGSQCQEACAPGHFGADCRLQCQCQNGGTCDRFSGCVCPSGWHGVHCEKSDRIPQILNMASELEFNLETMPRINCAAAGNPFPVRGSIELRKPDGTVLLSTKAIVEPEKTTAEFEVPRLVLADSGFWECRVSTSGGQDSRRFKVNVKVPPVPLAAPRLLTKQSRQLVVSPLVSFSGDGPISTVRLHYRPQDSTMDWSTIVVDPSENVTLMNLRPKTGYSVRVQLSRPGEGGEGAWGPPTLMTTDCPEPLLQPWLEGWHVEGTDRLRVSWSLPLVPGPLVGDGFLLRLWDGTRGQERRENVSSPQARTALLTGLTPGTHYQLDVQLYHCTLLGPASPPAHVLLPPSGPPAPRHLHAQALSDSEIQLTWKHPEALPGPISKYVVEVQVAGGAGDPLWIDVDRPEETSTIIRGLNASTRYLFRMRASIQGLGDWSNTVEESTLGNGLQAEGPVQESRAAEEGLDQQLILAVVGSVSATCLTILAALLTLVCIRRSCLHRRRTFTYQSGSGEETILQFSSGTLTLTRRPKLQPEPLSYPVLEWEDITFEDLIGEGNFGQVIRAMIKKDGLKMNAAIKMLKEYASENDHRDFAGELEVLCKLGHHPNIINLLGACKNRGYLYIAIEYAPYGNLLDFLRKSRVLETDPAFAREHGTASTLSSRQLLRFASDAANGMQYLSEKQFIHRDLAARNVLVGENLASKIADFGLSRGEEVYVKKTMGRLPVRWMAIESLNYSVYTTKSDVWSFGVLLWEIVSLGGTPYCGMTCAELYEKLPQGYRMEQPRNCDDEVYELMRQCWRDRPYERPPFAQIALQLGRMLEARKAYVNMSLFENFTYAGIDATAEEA

CC(C)NC(=O)COc1cccc(-c2nc(Nc3ccc4[nH]ncc4c3)c3ccccc3n2)c1 [KD025, 2-(3-(4-((1H-indazol-5-yl)amino)quinazolin-2-yl)phenoxy)-N-isopropylacetamide]
remaining binding at 10 µM (ACVR1): 32%
remaining binding at 10 µM (NEK7): 91%
remaining binding at 10 µM (NEK9): 85%
remaining binding at 10 µM (NEK1): 99%
remaining binding at 10 µM (LOK): 9.8%
remaining binding at 10 µM (GRK1): 64%
remaining binding at 10 µM (TIE1): 63%
remaining binding at 10 µM (TAOK1): 71%
remaining binding at 10 µM (SLK): 59%
remaining binding at 10 µM (PAK4): 100%
remaining binding at 10 µM (MAPKAPK2): 100%
remaining binding at 10 µM (NEK5): 83%
remaining binding at 10 µM (PRKCI): 76%
remaining binding at 10 µM (BMPR1A): 89%
remaining binding at 10 µM (CSNK1G3): 100%
remaining binding at 10 µM (IRAK4): 100%
remaining binding at 10 µM (PRKG1): 100%
remaining binding at 10 µM (PRP4): 15%
remaining binding at 10 µM (CDC2L5): 100%
remaining binding at 10 µM [1]: 100%
remaining binding at 10 µM (CIT): 75%
remaining binding at 10 µM (PAK6): 100%
remaining binding at 10 µM (PFTK1): 77%
remaining binding at 10 µM (PAK1): 56%
remaining binding at 10 µM (p38-alpha): 100%
remaining binding at 10 µM (FGR): 82%
remaining binding at 10 µM (DCAMKL3): 64%
remaining binding at 10 µM (TRKC): 100%
remaining binding at 10 µM (HIPK1): 58%
remaining binding at 10 µM (ROS1): 79%
remaining binding at 10 µM (MYLK2): 87%
remaining binding at 10 µM (YANK2): 88%
remaining binding at 10 µM (PRKD3): 100%
remaining binding at 10 µM (SYK): 100%
remaining binding at 10 µM (FYN): 61%
remaining binding at 10 µM (p38-beta): 93%
remaining binding at 10 µM (MARK2): 71%
remaining binding at 10 µM (CHEK2): 99%
remaining binding at 10 µM (FGFR3(G697C)): 77%
remaining binding at 10 µM (MEK1): 72%
remaining binding at 10 µM (RIPK2): 92%
remaining binding at 10 µM (CDK8): 98%
remaining binding at 10 µM (GSK3A): 100%
